≈ marks a conversion by molar mass, not a printed value. Read-outs that look alike come from different tables or passages of the source. Marks after values point to notes of the source that are not given here.
Legend:
[1] = system: Staphylococcus aureus (MRSA) DSM-11822; assay: MIC by microbroth dilution; type: cell-based; details: Staphylococcus aureus, 16 h
Description: (§1) Bacterial strains. Bacterial wildtype strains used in susceptibility assays were either part of HZI's strain collection or purchased from the German Collection of Microorgansims and Cell Cultures (Deutsche Sammlung von Mikroorganismen und Zellkulturen, DSMZ).
(§2) Minimum inhibitory concentration (MIC) was determined by microbroth dilution. In brief, overnight cultures of bacteria (EBS medium) were diluted to OD600 0.01. Disciformycin A (1) or B (2) dissolved in DMSO was added directly to the cultures in 96-well plates (Sarstedt, flat bottom) in duplicate and the compound was tested in serial dilution. […] After 16 h incubation at 900 rpm and 30° C. on a microplate shaker (Titramax, Heidolph) absorbance at 600 nm was measured using a microplate reader (POLARstar Omega, BMG Labtech). MIC values were determined by sigmoidal curve fitting.

[2] = system: S. aureus N315 wildtype (WT); assay: Susceptibility (MIC) of S. aureus N315 wildtype; type: cell-based; details: Staphylococcus aureus
[3] = system: S. aureus N315 mutant Mt50DscA.1; assay: Susceptibility (MIC) of Disciformycin A-resistant mutant; type: cell-based; details: Staphylococcus aureus
[4] = system: S. aureus N315 mutant Mt50DscA.2; assay: as above; type: cell-based; details: Staphylococcus aureus
[5] = system: S. aureus N315 mutant Mt50DscA.3; assay: as above; type: cell-based; details: Staphylococcus aureus
[6] = system: S. aureus N315 mutant Mt50DscA.4; assay: as above; type: cell-based; details: Staphylococcus aureus
[7] = system: S. aureus N315 mutant Mt50DscA.5; assay: as above; type: cell-based; details: Staphylococcus aureus
[8] = system: S. aureus N315 mutant Mt50DscA.6; assay: as above; type: cell-based; details: Staphylococcus aureus
[9] = system: S. aureus N315 mutant Mt50DscA.8; assay: as above; type: cell-based; details: Staphylococcus aureus
[10] = system: S. aureus N315 Mt50DscA.9; assay: as above; type: cell-based; details: Staphylococcus aureus
[11] = system: S. aureus N315 mutant Mt50DscA.10; assay: as above; type: cell-based; details: Staphylococcus aureus
[12] = system: S. aureus N315 mutant Mt50DscA.11; assay: as above; type: cell-based; details: Staphylococcus aureus
[13] = system: S. aureus Newman in PMA-differentiated human THP-1 cell line (macrophages); assay: Intra-macrophage activity; type: cell-based; details: at 8×MIC, 18 h, MOI 10, cfu counting
Source text: The PMA-differentiated human THP-1 cell line (macrophages) was used as cellular host for infection with S. aureus Newman at an MOI (multiplicity of infection) of 10. […] Intracellular bacteria were recovered and serial dilutions were streaked out on CASO-Agar for cfu counting. The reference drug rifampicin reduced the number of intracellular bacteria by ca. 4 logs (at 8×MIC).

Bacillus subtilis DSM 10 = assay: MIC by microbroth dilution; type: cell-based; details: 16 h, 30° C., n.i. = no inhibition up to 67 μg/ml
Description: as §1, §2

[14] = system: Chromobacterium violaceum DSM 30191; assay: MIC by microbroth dilution; type: cell-based; details: 16 h, 30° C., n.i. = no inhibition up to 67 μg/ml
Description: as §1, §2

[15] = system: Escherichia coli DSM 1116; assay: MIC by microbroth dilution; type: cell-based; details: 16 h, 30° C., n.i. = no inhibition up to 67 μg/ml
Description: as §1, §2

[16] = system: Micrococcus luteus DSM 20030; assay: MIC by microbroth dilution; type: cell-based; details: 16 h, 30° C., n.i. = no inhibition up to 67 μg/ml
Description: as §1, §2

[17] = system: Mycobacterium diemhoferi DSM 43524; assay: MIC by microbroth dilution; type: cell-based; details: 16 h, 30° C., n.i. = no inhibition up to 67 μg/ml
Description: as §1, §2

[18] = system: Mycobacterium sp. DSM 43270; assay: MIC by microbroth dilution; type: cell-based; details: 16 h, 30° C., n.i. = no inhibition up to 67 μg/ml
Description: as §1, §2

[19] = system: Nocardioides simplex DSM 20130; assay: MIC by microbroth dilution; type: cell-based; details: 16 h, 30° C., n.i. = no inhibition up to 67 μg/ml
Description: as §1, §2

[20] = system: Paenibacillus polymyxa DSM 36; assay: MIC by microbroth dilution; type: cell-based; details: 16 h, 30° C., n.i. = no inhibition up to 67 μg/ml
Description: as §1, §2

[21] = system: Staphylococcus aureus DSM 346; assay: MIC by microbroth dilution; type: cell-based; details: 16 h, 30° C., n.i. = no inhibition up to 67 μg/ml
Description: as §1, §2

[22] = system: Pseudomonas aeruginosa DSM 50071; assay: MIC by microbroth dilution; type: cell-based; details: 16 h, 30° C., n.i. = no inhibition up to 67 μg/ml
Description: as §1, §2

[23] = system: primary monocytes from human peripheral blood; assay: MTT assay, cytotoxic activity; type: cell-based; details: incubation 24 or 48 hours
Description: (§3) The cytotoxic activity of gulmirecin A (3) and gulmirecin B (4) against human cells was evaluated in the well-established MTT assay using primary monocytes from human peripheral blood as well as transformed lung epithelial cell A-549 cell and leukemic Mono Mac 6 cells. Furthermore, 3 and 4 were tested against K-562, HUVEC, and HeLa cells.
Human primary monocytes were isolated from leukocyte concentrates, obtained from the Institute of Transfusion Medicine at the University Hospital Jena, Germany. The concentrates were prepared from the blood of healthy adult human donors who had not taken any anti-inflammatory medication for the 10 days prior to blood donation, as described. In brief, freshly withdrawn peripheral blood was pretreated with citrate-phosphate-dextrose solution as anticoagulant and processed with the 2C+ protocol of the Atreus Whole Blood Processing System (Terum BCT). Peripheral blood mononuclear cells (PBMC) were isolated by dextran sedimentation and centrifugation on LSM 1077 lymphocyte separation medium (PAA Laboratories). For isolation of monocytes, the PBMC were washed twice with ice-cold phosphate buffered saline (PBS) and plated (density 2×10^7 cells/ml) in culture flasks (Greiner Bio-One) containing PBMC medium (RPMI 1640 medium supplemented with 100 U/ml penicillin, 100 μg/ml streptomycin and 2 mM L-glutamine) for 1.5 hours at 37° C., 5% CO2. Non-adherent cells were removed; adherent monocytes were scraped, washed with ice-cold PBS and resuspended in ice-cold PBS with a purity of >85%, defined by forward- and side-light scatter properties and detection of the CD14 surface molecule by flow cytometry (BD FACS Calibur). […]
Cells (3×10^5 Mono Mac 6, 1×10^5 A-549 cells, or 2×10^6 monocytes per well) were seeded in a 96-well plate in the respective medium (100 μl/well). […] Absorbance of each well was measured at 570 nm in a Multiskan™ microplate spectrophotometer (Thermo Scientific).

[24] = system: transformed lung epithelial A-549 cells; assay: MTT assay, cytotoxic activity; type: cell-based, human; details: incubation 24 or 48 hours
Description: as §3
(§4) The human monocytic cell line Mono Mac 6 was cultured in RPMI 1640 medium supplemented with FCS (10%, v/v), penicillin (100 U/ml), streptomycin (100 μg/ml), insulin (10 μg/ml), oxaloacetic acid (1 mM), sodium pyruvate (1 mM), and 1× non-essential amino acids at 37° C. and 5% CO2. A-549 cells (DSM ACC-107) were cultured in DMEM high glucose (4.5 g/l) medium supplemented with FCS (10% v/v), penicillin (100 U/ml) and streptomycin (100 μg/ml) at 37° C. in a 5% CO2 incubator. K-562 (DSM ACC 10) and HeLa cells (DSM ACC 57) were grown in RPMI 1640, whereas cells of HUVEC (ATCC CRL-1730) were cultured in DMEM medium. The respective media were supplemented with ultraglutamine 1 (10 ml/l), gentamicin sulfate (500 μl/l), and FCS (10% v/v).
(§5) Cells (3×10^5 Mono Mac 6, 1×10^5 A-549 cells, or 2×10^6 monocytes per well) were seeded in a 96-well plate in the respective medium (100 μl/well). Monocytes were allowed to adhere for 1.5 hours (37° C., 5% CO2) prior to treatment. Test compounds (0.3% DMSO as vehicle) were added to each well and samples were incubated for 48 hrs. Then, 20 μl of thiazolyl blue tetrazolium bromide (MTT, 5 mg/ml PBS) were added, and the incubation was continued at 37° C., 5% CO2 until blue staining of the vehicle control. Formazan formation was stopped by adding 100 μl of lysis buffer (SDS, 10%, w/v in 20 mM HCl) and samples were shaken overnight. Absorbance of each well was measured at 570 nm in a Multiskan™ microplate spectrophotometer (Thermo Scientific).

[25] = system: leukemic Mono Mac 6 cells; assay: MTT assay, cytotoxic activity; type: cell-based, human; details: incubation 24 or 48 hours
Description: as §3, §4
as §5, with “Test compounds (0.3% DMSO as vehicle) were added to each well and samples were incubated for 48 hrs.” left out

## CN[C@H](CC(C)C)C(=O)N[C@H]1C(=O)N[C@@H](CC(N)=O)C(=O)N[C@H]2C(=O)N[C@H]3C(=O)N[C@H](C(=O)N[C@H](C(=O)O)c4cc(O)cc(O)c4-c4cc3ccc4O)[C@H](O)c3ccc(c(Cl)c3)Oc3cc2cc(c3O[C@@H]2O[C@H](CO)[C@@H](O)[C@H](O)[C@H]2O[C@H]2C[C@](C)(N)[C@H](O)[C@H](C)O2)Oc2ccc(cc2Cl)[C@H]1O [Vancomycin, reference compound]
[1]
  MIC: 830 ng/mL (≈ 573 nM)

## CO[C@H]1/C=C/O[C@@]2(C)Oc3c(C)c(O)c4c(O)c(c(/C=N/N5CCN(C)CC5)c(O)c4c3C2=O)NC(=O)/C(C)=C\C=C\[C@H](C)[C@H](O)[C@@H](C)[C@@H](O)[C@@H](C)[C@H](OC(C)=O)[C@@H]1C [rifampicin, reference compound]
[2]; S. aureus N315 WT, read-out: MIC
  MIC: 3 ng/mL (≈ 3.65 nM)
[3]
  MIC: 3 ng/mL (≈ 3.65 nM)
[4]
  MIC: 5 ng/mL (≈ 6.08 nM)
[5]
  MIC: 3 ng/mL (≈ 3.65 nM)
[6]
  MIC: 1 ng/mL (≈ 1.22 nM)
[7]
  MIC: 1 ng/mL (≈ 1.22 nM)
[8]
  MIC: 1 ng/mL (≈ 1.22 nM)
[9]
  MIC: 1 ng/mL (≈ 1.22 nM)
[10]
  MIC: 1 ng/mL (≈ 1.22 nM)
[11]
  MIC: 1 ng/mL (≈ 1.22 nM)
[12]
  MIC: 1 ng/mL (≈ 1.22 nM)
[13]
  reduction of the number of intracellular bacteria: ca. 4 logs

## CN(C)[C@@H]1C(O)=C(C(N)=O)C(=O)[C@@]2(O)C(O)=C3C(=O)c4c(O)cccc4[C@@](C)(O)[C@H]3[C@H](O)[C@@H]12.Cl [Oxytetracyclin hydrochloride, reference compound]
Bacillus subtilis DSM 10
  MIC: 4.2^[a] μg/ml
[14]
  MIC: 0.83^[a] μg/ml
[15]
  MIC: 0.83^[a] μg/ml
[16]
  MIC: 0.42^[a] μg/ml
[17]
  MIC: ≤0.052^[a] μg/ml
[18]
  MIC: 0.52^[a] μg/ml
[19]
  MIC: 3.3^[a] μg/ml
[20]
  MIC: 1.7^[a] μg/ml
[21]
  MIC: 0.21^[a] μg/ml

## C/C=C(/C)[C@H]1C/C=C(\C)[C@@H](O[C@H]2O[C@H](CO)[C@@H](O)[C@@H]2O)[C@H](OC(=O)CC(C)C)C(=O)C[C@@H](OC)[C@H](C)C(=O)O1 [Compound 5, disciformycin C]
[2]
  MIC: 4000 ng/mL (≈ 7190 nM)
[3]
  MIC: > 64000 ng/mL
[5]
  MIC: > 64000 ng/mL
[7]
  MIC: 32000 ng/mL (≈ 57500 nM)
[8]
  MIC: > 64000 ng/mL

## Gentamycin [reference compound]
[22]
  MIC: 42.0^[b] μg/ml

## CN[C@@H]1C[C@H]2O[C@@](C)([C@@H]1OC)n1c3ccccc3c3c4c(c5c6ccccc6n2c5c31)C(=O)NC4 [staurosporine, reference compound]
[23]
  cell viability / cytotoxicity (MTT): highly cytotoxic
[24]
  cell viability / cytotoxicity (MTT): highly cytotoxic
[25]
  cell viability / cytotoxicity (MTT): highly cytotoxic

## C/C=C(/C)[C@H]1C/C=C(\C)[C@@H](O[C@H]2O[C@H](CO)[C@@H](O)[C@@H]2O)[C@H](OC(=O)CC(C)C)C(=O)C[C@@H](SC)[C@H](C)C(=O)O1 [Compound 6, disciformycin D]
[2]
  MIC: 500 ng/mL (≈ 873 nM)
[3]
  MIC: 32000 ng/mL (≈ 55900 nM)
[5]
  MIC: 64000 ng/mL (≈ 112000 nM)
[7]
  MIC: 4000 ng/mL (≈ 6980 nM)
[8]
  MIC: 32000 ng/mL (≈ 55900 nM)

Source: US20200231562A1, “NOVEL MACROLIDE ANTIBIOTICS” (HELMHOLTZ-ZENTRUM FÜR INFEKTIONSFORSCHUNG GMBH, priority 2014, published 2020)
